“Also recorded” adds a separate entry of the source.
Legend:
[1] = Activated ABTS antioxidant assay (absorbance at 405 nm, Trolox calibration); type: biochemical
Procedure: The Brevibacillus laterosporus fermentate was prepared as described in Example 2, using TSB media (1.7% Tryptone, 0.3% Soytone, 0.25% Glucose, 0.5% sodium chloride, 0.25% Potassium phosphate Dibasic) as the growing solution. The fermentate supernatant was first let flow through an Amicon® Ultra Centrifugal Filters with a size cutoff of 30 kDa. The permeate (which was essentially free of cells) was kept and then let flow through another Amicon® Ultra Centrifugal Filters with a size cutoff of 3 kDa. The retentate was concentrated by 10-fold in volume and stored as the final product (i.e., size is greater than 3 kDa and less than 30 kDa), referring as the concentrated fermentate in the subsequent experiments. The 10-fold concentrated fermentate was dosed separately at 2 weight percent into the serum (Table 2) and hydrogel (Table 3) formulations with xanthan gum.
The water-soluble analogue of α-Tocopherol, Trolox, is often used as a reference for characterization the antioxidant properties of a new ingredient in the assay (Reference: “Huang, S. W., Hopia, A., Schwarz, K., Frankel, E. N., & German, J. B. (1996). Antioxidant activity of α-tocopherol and trolox in different lipid substrates: bulk oils vs oil-in-water emulsions. Journal of Agricultural and Food Chemistry, 44 (2), 444-452.”).
A series of Trolox with different concentrations were used as the calibration curve for quantifying the antioxidant properties.
Table 5 summarizes the measured absorbance and the corresponding trolox equivalent (calculated from the Trolox calibration curve) of the fermentate and fermentate-dosed formulations.

[2] = Foam enhancing test (foam height in 50-ml conical tube); type: physicochemical; design: key: tube marking minus 10 (mL scale); 0 = no foam, 40 = maximum
Procedure: Foam enhancing capabilities of the Brevibacillus laterosporus A8.11 fermentate supernatant (cell free supernatant) were evaluated in the presence of different categories of surfactants and detergents commonly found in home and personal care cleaning formulations. To evaluate this, a solution of 1% zwitterionic detergent (CHAPS hydrate), 1% solution of the glycolipid biosurfactant type 1 (acidic sophorolipids non-acetylated), a 0.1% solution of glycolipid biosurfactant type 2 (lactonic (di-acetylated) sophorolipids), and 0.1% of the anionic/non-ionic detergent were each prepared with 10% cell free supernatant in a 50-ml conical tube with deionized water for a final volume of 10-mL. Control samples were prepared individually as 1% zwitterionic detergent, 1% solution of the glycolipid biosurfactant type 1, a 0.1% solution of glycolipid biosurfactant type 2, 0.1% of the anionic/non-ionic detergent and 10% cell free supernatant only in a 50-ml conical tube with deionized water for a final volume of 10-mL. All samples were shaken for 30 seconds by hand and left at room temperature to observe foam height. Foam height was measured by the marking on a 50-ml conical tube and subtracted by 10, where a value of 40 is the maximum foam height and a value of 0 indicates no foam.

[3] = Foam stabilizing test (foam height in 50-ml conical tube); type: physicochemical; design: unit not given beside the values
Procedure: Foam stabilizing capabilities of the Brevibacillus laterosporus A8.11 fermentate supernatant (cell free supernatant) were evaluated in the presence of different categories of surfactants and detergents commonly found in home and personal care cleaning formulations. To evaluate this, a solution of a 1% non-ionic detergent (Tergitol 15-S-7) and a 1% solution of anionic surfactant (Sodium lauroyl sarcosinate) were each prepared with 10% cell free supernatant in a 50-ml conical tube with deionized water for a final volume of 10-mL. Control samples were prepared individually as 1% non-ionic detergent only, 1% anionic surfactant only and 10% cell free supernatant only in 50-ml conical tubes with deionized water for a final volume of 10-mL. All samples were shaken for 30 seconds by hand and left at room temperature to observe foam height. Foam height was measured by the marking on a 50-ml conical tube and subtracted by 10, where a value of 40 is the maximum foam height and a value of 0 indicates no foam. Foam stabilization was defined as the ability to maintain the starting foam height over multiple timepoints.

[4] = system: Pseudomonas aeruginosa (ATCC #15442); test: Polylysine control of Pseudomonas aeruginosa with or without Acumer 4200 (visual turbidity); type: cell-based; settings: 37 C overnight
Procedure: The ability of Polylysine, a known cationic peptide-based food preservative, to suppress the growth of Pseudomonas aeruginosa in the presence and absence of the anionic polymer Acumer 4200 was also evaluated. The test was conducted in scintillation vials inoculated with a 1:100 dilution from an overnight of Pseudomonas aeruginosa (ATCC #15442) allowed to incubate at 37 C overnight. The readout was visual with turbidity as an indicator of Pseudomonas growth.

[5] = Time 0, 10-mL in deionized water, shaken 30 seconds, 40 = maximum

Row | Molecule | Foam Height [2, 5] | Foam Height ([2]; Time 1 min) | Foam Height ([2]; Time 5 min) | Foam Height ([2]; Time 15 min) | Foam Height ([2]; Time 30 min) | Foam Height ([2]; Time 3 hours) | Foam Height ([2]; Time 24 hours) | other results
1 | Cc1c(C)c2c(c(C)c1O)CCC(C)(C(=O)O)O2 (stereo not drawn) [Trolox] | – | – | – | – | – | – | – | Measured absorbance ([1]; Trolox 4.7 μM): 1.16; Measured absorbance ([1]; Trolox 9.4 μM): 1.13; Measured absorbance ([1]; Trolox 18.75 μM): 1.09; Measured absorbance ([1]; Trolox 37.5 μM): 0.97; Measured absorbance ([1]; Trolox 75 μM): 0.77; Measured absorbance ([1]; Trolox 150 μM): 0.38
2 | acidic sophorolipids non-acetylated [Glycolipid Biosurfactant Type-1] | 2.5 | 1 | 1 | 1 | 1 | 0 | 0 | –
3 | Tergitol 15-S-7 [Non-ionic Detergent] | – | – | – | – | – | – | – | Foam Height [3, 5]: 37.5; Foam Height ([3]; Time 1 min): 37.5; Foam Height ([3]; Time 5 min): 36; Foam Height ([3]; Time 15 min): 22.5; Foam Height ([3]; Time 30 min): 20; Foam Height ([3]; Time 3 hours): 14; Foam Height ([3]; Time 24 hours): 2
4 | C[C@H](CCC(=O)NCCC[N+](C)(C)CCCS(=O)(=O)[O-])[C@H]1CC[C@H]2[C@@H]3[C@H](O)C[C@@H]4C[C@H](O)CC[C@]4(C)[C@H]3C[C@H](O)[C@]12C.O [Zwitterionic Detergent, CHAPS hydrate] | 15 | 2.5 | 0 | 0 | 0 | 0 | 0 | –
5 | lactonic (di-acetylated) sophorolipids [Glycolipid Biosurfactant Type-2] | 2.5 | 2.5 | 2 | 1 | 1 | 0 | 0 | –
6 | Polylysine | – | – | – | – | – | – | – | Visual Inspection ([4]; TSB growth medium with Acumer 4200 and polylysine): does not function as an antimicrobial; also recorded: Turbid; Visual Inspection ([4]; TSB growth medium with the substance alone): able to suppress microbial growth; also recorded: Clear (polylysine prevented growth)

Reference: patent US20250281388A1, “COMPOSITIONS COMPRISING BREVIBACILLA MULTIFUNCTIONAL FERMENTATES AND METHODS OF USE” (Nutrition & Biosciences USA 4, Inc., priority 2022, published 2025)
